Consider five molecules from patent publication EP1321467A2, “High affinity inhibitors for target validation and uses thereof” (Princeton University, priority 1999, dated 2000).

In data set [1] the target is T1, GST-XD4(V323A, I338A) (Rous sarcoma virus subgroup A, UniProt P00524, DEL77-225/I338A/V323A).
T1 construct: double alanine mutant of the v-Src catalytic domain, (the XD4 fragment) were made as glutathione S-transferase (GST) fusion proteins (GST-XD4); made in house; host or cells: E. coli (DH5a), pGEX-KT
The data set is classed as biochemical. The note with it: RR-Src 1 mM, 37°C, pH 8.0. The procedure:
(§1) Kinetic constants were determined by analysis of Lineweaver-Burk plots of the rate data (64). […]

The subject of data set [2] is GST-XD4(V323A, I338A). In kind it is biochemical. Here is the method: as §1
The test system of data set [3] is wild type protein kinase. Description: In vitro kinase reactions with radiolabeled nucleotide in murine lymphocyte lysates. The data set is classed as biochemical. The conditions noted are these: 100 µM, 37°C, 10 min, autoradiogram. The procedure: For this it is preferably that no wild-type kinase, including ser/thr specific kinase (which carry out the bulk of cellular phosphorylation, as only 0.03% of all phosphoamino acids are tyrosine) (65), substantially accept the synthetic substrate. To establish that [γ-^32P]
These assays were performed in a manner similar to the procedure set forth in Example 2, with the exception of the use of radiolabeled [γ-^32P] […] Proteins were separate by 12.5% SDS-PAGE. The gel was soaked in 10% acetic acid, 10% isopropanol for 1 h. after which it was dried in a gel dryer and exposed to Biomax MS film (Kodak # 111-1681) for 1 h.
The results are shown in Figure 5(b), which is an autoradiogram showing the level of phosphorylation in hypotonically lysed murine lymphocytes with [γ-^32P] […] In principle, the ability to follow one protein kinase's activity in the presence of all other cellular kinase would allow for the identification of the direct kinase targets in a particular cell type by using membrane permeabilization (66) and a cell permeable form of A*TP to introduce [γ-^32P] A*TP into cells (67).

Data set [4] has as its target T1, GST-XD4(V323A, I338A). In kind it is biochemical. The conditions noted are these: nucleotide saturated; read-out: KM for RR-Src.
The test system of data set [5] is GST-XD4. Description: Kinetics for phosphate donor substrates. The data set is classed as biochemical. The conditions noted are these: RR-Src 1 mM, 37°C, pH 8.0. The procedure: as §1
Data set [6] deals with GST-XD4. The note with it: read-out: KM for RR-Src; nucleotide saturated.
For data set [7], the target named is T2, Cdc28·MBP-C1b2 (Saccharomyces cerevisiae, UniProt P00546).
T2 construct: His6 (C); made in house; host or cells: Sf9 insect cells, baculovirus, co-infected with Cak1-HA3 (Cdc28-His6); bacteria (MBP-Clb2)
Description: ATP kinetics, Histone H1 phosphorylation. The data set is classed as biochemical. The conditions noted are these: read-out: ATP Kinetics Km; Eadie-Hofstee.

Data set [8] concerns the target T3, Cdc28-as1·MBP-C1b2 (Saccharomyces cerevisiae, UniProt P00546, F88G). The note with it: Eadie-Hofstee.
Data set [9] deals with wild-type cells. Description: Yeast growth. The data set is classed as cell-based, Saccharomyces cerevisiae.
For data set [10], the system named is cdc28-as1 strain. Put plainly: Yeast growth. In kind it is cell-based, Saccharomyces cerevisiae.
The subject of data set [11] is cdc28-as1 cells. Put plainly: Genome-wide transcription, oligonucleotide microarray. The data set is classed as cell-based, Saccharomyces cerevisiae. The conditions noted are these: 500 nM, two hours, asynchronous cells.
The test system of data set [12] is wild-type cells. The data set is described as above. In kind it is cell-based, Saccharomyces cerevisiae. The conditions noted are these: 500 nM, 30 minutes. The procedure: Changes were deemed significant if they were greater than or equal to 2-fold or if the transcript changed present/absent status (as indicated by Affymetrix software) in the following comparisons: for non-specific drug effects: CDC28 + 1 -NM-PP1 vs CDC28: for cdc28-as1 effects: cdc28-as1 vs. CDC28.
Next, the effects of the inhibitor 1-NM-PP1 on cell growth and morphology were analyzed.

The target in data set [13] is T4, WT v-Src (Rous sarcoma virus subgroup A, UniProt P00524, DEL77-225).
T4 construct: glutathione-S-transferase fusion proteins of wild type v-Src catalytic domain, I338G v-Src SH1, and WT Fyn into the pGEX-KT plasmid; GST (N); made in house; host or cells: E. coli DH5a, pGEX-KT
Put plainly: biochemical. The data set is classed as biochemical.

In data set [14] the target is T5, I338G v-Src (Rous sarcoma virus subgroup A, UniProt P00524, DEL77-225/I338G).
T5 construct: catalytic domain of the target kinase, I338G v-Src, which was expressed in bacteria and purified as a glutathione-S-transferase (GST) fusion protein; made in house; host or cells: E. coli DH5a, pGEX-KT
Put plainly: biochemical. The data set is classed as biochemical.

Data set [15] concerns the target T3, Cdc28-as1·MBP-C1b2. Description: 1-NM-PP1 IC50, Histone H1 phosphorylation. In kind it is biochemical. More on the design: His6 (C); made in house; host or cells: Sf9 insect cells, baculovirus, co-infected with Cak1-HA3 (Cdc28-as1-His6); bacteria (MBP-Clb2). The procedure:
(§2) Purification of Cdc28-His6, Cdc28-as1-His6, MBP-Clb2: Lysate was prepared from insect cells co-infected with baculoviruses encoding Cdc28-His6 or Cdc28-as1-His6 and Cak1-HA3 (151). Cdc28-His6 and Cdc28-as1-His6 were purified by metal affinity chromatography as described (152), followed by […]. MBP-Clb2 was purified from lysates of bacteria expressing MBP-Clb2 (a gift of R. Deshaies) on an amylose column (NEBL), followed by anion-exchange chromatography (Pharmacia Q Sepharose Fast Flow).
(§3) Phosphate incorporation was determined at each inhibitor concentration by scintillation counting.

The target of data set [16] is T2, Cdc28·MBP-C1b2. Description: 1-NM-PP1 IC50, Histone H1 phosphorylation. The data set is classed as biochemical. Here is the method:
as §2, §3

For data set [17], the target named is T6, WT Fyn (Homo sapiens, UniProt P06241).
T6 construct: GST (N); made in house; host or cells: E. coli DH5a, pGEX-KT
Description: In vitro kinase inhibition assay. The note with it: Table 3. The data set is classed as biochemical.

Data set [18] concerns cdc28-as1 cells. Description: Cell cycle analysis, DNA content and morphology. In kind it is cell-based, Saccharomyces cerevisiae. The note with it: 500 nM, cells arrested in late mitosis with cdc15-2. The procedure:
DNA flow cytometry: Approximately 1x10^7 cells for each sample were fixed in 70% ethanol, resuspended in 50 mM Tris-HCl pH 8.0, briefly sonicated, digested with 2mg/ml RNase for 2 hours at 37°C, and resuspended in 0.2 ml protease solution (5 mg/ml pepsin. 0.5% concentrated HC1) and digested for 45 minutes at 37°C. DNA was stained with 1µM Sytox Green (Molecular Probes) in 50 mM Tris-HCl pH 7.5 and 20,000 cells from each sample were scanned with a FACScan FACS machine (Becton-Dickinson).
Thus, it appears possible to titrate the level of Cdc28-as1 activity in vivo, allowing the identification of cell cycle events that are differentially sensitive to decreases in the catalytic activity of Cdc28.
[…], initiation of budding and DNA synthesis were delayed about 30 to 60 minutes, while accumulation of the mitotic cyclin C1b2 was delayed 60 to 90 minutes. Cells went on to arrest with moderate C1b2 levels, highly hyperpolarized buds, and a G2/M DNA content, much like the arrest observed in asynchronous cells. […] Thus, cells treated with low concentrations of the inhibitor are slightly delayed during progression through early stages of the cell cycle, but eventually arrest due to a failure to assemble a mitotic spindle and enter mitosis.

For data set [19], the target named is I338A v-Src (Rous sarcoma virus subgroup A, UniProt P00524, I338A). Put plainly: biochemical.
For data set [20], the system named is wild-type Fus3 expressing cells. Description: Yeast mating assay for Fus3 function. The data set is classed as cell-based, Saccharomyces cerevisiae. The conditions noted are these: all concentrations up to 50 µM.
The subject of data set [21] is S. cerevisiae expressing either wild-type Fus3, Fus3-asl, or no Fus3. Description: Non-selective cytotoxicity control, plating of mating cultures on YPD. The conditions noted are these: any of the three strains.
For data set [22], the system named is fus3-as1 strain. Description: Yeast mating assay for Fus3 function. The data set is classed as cell-based, Saccharomyces cerevisiae.
Data set [23] deals with panel of wild-type protein kinases. Description: In vitro inhibition, panel of wild-type protein kinases. In kind it is biochemical.
In data set [24] the target is T7, F80G CDK2 (Homo sapiens, UniProt P24941, F80G).
T7 construct: made in house
Description: In vitro inhibition of phosphorylation of an exogenous substrate, kinase panel. The data set is classed as biochemical.

Data set [25] concerns the target T8, F89G CAMK IIα (Homo sapiens, UniProt Q9UQM7, F89G).
T8 construct: made in house
Described as above. In kind it is biochemical.

Data set [26] deals with glycine mutants. Put plainly: In vitro inhibition, all glycine mutant kinases of the panel. The data set is classed as biochemical. The note with it: read-out: IC 50's for all of the glycine mutants.
Where [27] appears, read: 1-NM-PP1 IC50 @ 10 µM ATP, 10 µM ATP.
[28] abbreviates: 1-NM-PP1 IC50 @ 1 mM ATP, 1 mM ATP.

Read-outs that look alike come from different tables or passages of the source. Where only a bound is given, the exact number is not on record here.

T2 sequence (P00546 whole entry): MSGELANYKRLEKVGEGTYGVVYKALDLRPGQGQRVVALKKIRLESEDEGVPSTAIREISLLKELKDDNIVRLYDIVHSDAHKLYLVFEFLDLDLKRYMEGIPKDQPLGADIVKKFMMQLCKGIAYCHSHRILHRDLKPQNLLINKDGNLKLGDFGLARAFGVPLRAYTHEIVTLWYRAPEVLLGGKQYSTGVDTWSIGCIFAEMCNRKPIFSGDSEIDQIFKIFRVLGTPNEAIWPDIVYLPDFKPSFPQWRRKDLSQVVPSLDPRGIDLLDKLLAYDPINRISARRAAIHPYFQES
T2 sequence (P24869 whole entry partner): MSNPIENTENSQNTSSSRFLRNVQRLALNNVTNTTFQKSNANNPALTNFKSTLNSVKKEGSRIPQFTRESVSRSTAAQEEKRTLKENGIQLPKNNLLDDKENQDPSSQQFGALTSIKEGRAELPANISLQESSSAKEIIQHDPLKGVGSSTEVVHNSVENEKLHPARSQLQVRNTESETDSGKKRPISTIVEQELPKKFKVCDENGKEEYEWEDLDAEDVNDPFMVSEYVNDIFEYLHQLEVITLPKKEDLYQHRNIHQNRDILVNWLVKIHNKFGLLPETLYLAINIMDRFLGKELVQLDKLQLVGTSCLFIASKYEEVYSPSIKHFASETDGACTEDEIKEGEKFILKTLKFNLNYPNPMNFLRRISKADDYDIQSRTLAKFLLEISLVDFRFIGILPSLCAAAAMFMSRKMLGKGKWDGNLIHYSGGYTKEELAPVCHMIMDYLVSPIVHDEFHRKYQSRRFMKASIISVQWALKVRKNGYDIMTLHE
T3 sequence (P00546 whole entry F88G): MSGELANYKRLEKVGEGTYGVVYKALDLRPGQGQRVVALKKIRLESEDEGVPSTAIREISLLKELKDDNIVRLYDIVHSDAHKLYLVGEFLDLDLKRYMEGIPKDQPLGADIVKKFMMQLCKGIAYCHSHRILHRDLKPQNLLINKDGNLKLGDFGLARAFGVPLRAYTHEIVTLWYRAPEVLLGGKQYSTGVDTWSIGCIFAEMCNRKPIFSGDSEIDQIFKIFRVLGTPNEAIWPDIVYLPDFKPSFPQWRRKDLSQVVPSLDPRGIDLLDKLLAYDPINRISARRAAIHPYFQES
T3 sequence (P24869 whole entry, further chain): as the sequence (P24869 whole entry partner) above
T6 sequence (P06241 1-534 isoform P06241-2): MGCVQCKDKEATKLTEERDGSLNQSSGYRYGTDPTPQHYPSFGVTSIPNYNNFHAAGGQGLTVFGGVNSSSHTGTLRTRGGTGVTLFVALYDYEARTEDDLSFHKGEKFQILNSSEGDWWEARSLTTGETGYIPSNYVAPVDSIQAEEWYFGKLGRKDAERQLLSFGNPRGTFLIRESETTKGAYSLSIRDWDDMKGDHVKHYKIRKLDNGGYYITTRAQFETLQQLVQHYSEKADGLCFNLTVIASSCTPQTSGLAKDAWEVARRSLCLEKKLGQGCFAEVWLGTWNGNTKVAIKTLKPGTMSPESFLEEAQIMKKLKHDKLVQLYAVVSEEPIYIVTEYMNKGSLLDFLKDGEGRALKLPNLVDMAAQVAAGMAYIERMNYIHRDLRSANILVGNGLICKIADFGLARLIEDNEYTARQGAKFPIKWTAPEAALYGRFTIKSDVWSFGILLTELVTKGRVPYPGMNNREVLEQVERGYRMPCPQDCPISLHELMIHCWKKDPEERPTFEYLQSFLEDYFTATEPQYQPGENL
T8 sequence (Q9UQM7 whole entry F89G): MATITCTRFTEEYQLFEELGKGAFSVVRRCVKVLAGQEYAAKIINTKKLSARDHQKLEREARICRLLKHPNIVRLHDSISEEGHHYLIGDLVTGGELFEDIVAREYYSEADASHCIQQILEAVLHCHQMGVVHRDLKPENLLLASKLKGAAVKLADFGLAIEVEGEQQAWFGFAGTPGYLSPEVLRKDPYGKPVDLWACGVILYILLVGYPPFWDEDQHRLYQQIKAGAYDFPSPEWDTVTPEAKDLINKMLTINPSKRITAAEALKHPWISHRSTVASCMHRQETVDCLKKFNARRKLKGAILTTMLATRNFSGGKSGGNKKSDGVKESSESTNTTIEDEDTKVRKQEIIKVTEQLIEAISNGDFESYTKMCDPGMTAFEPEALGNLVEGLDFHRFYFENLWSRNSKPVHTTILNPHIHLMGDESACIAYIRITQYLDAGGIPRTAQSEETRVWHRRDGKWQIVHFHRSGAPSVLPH

The Km is the concentration of substrate that gives half-maximal velocity. As for `O=P(O)(O)OP(=O)(O)OP(=O)(O)OC[C@H]1O[C@@H](n2cnc3c(NC4CCCC4)ncnc32)[C@H](O)[C@@H]1O` [ATP analog 8, N^6(cyclopentyl)ATP], the Km in data set [1] was 15 ± 3 µM; in data set [4] it was 2100 ± 900 µM. In addition, in data set [2] (mutant with analog versus wild type with ATP), the “kcat/KM lower than the kcat/KM of the wild-type kinase with ATP” value amounted to 50 fold. Besides, the “radiolabeled phosphoproteins in the cell lysate” value in data set [3] is “no radiolabeled phosphoproteins”.
In general, kcat refers to the maximal rate divided by the concentration of active sites. `Nc1ncnc2c1ncn2[C@@H]1O[C@H](COP(=O)(O)OP(=O)(O)OP(=O)(O)O)[C@@H](O)[C@H]1O` [ATP, adenosine triphosphate]: the Km in data set [5] worked out at 12 ± 3 µM; in [6], 2600 ± 900 µM; in data set [7] it was 35 µM; in data set [1] it was 150 ± 20 µM; in data set [8] (read-out: ATP Kinetics Km), 322 µM. Also, the kcat in data set [1] came out at 0.013 ± 0.0033 s⁻¹. The “KM of the mutant higher than the KM of GST-XD4” value in data set [2] (mutant versus GST-XD4) is “more than 10 fold”. Moreover, in data set [8], the “ATP Kinetics kcat” value is 0.355 s⁻¹.
On to `CC(C)(C)n1nc(Cc2cccc3ccccc23)c2c(N)ncnc21` [Compound 6h, 4-amino-1-(tert-butyl)-3-(1'-naphthylmethyl)pyrazolo[3,4-d]pyrimidine], for which the “increase of doubling times” value in data set [9] (50,000 nM) is “about 2 fold”. Also, the IC50 is 50 to 100 nM in data set [10] (Saccharomyces cerevisiae, read-out: inhibitor concentration at which growth was inhibited 50%); 28000 nM in data set [13]; 4.2 nM in [14]; 2 nM in data set [15] (setting [27]); 2.9 nM in [15] (setting [28]); approximately 3 nM in [15] (IC50, 1 mM ATP, text b306). Further, the IC50 in data set [16] (1 mM ATP, text b306, read-out: IC50) turned out to be 44000 nM; in data set [16] (setting [27]) it was 22000 nM; in [16] (setting [28]), 44000 nM; in [17], 1100 nM. Also, in data set [11], the “genes with […] or greater changes in transcription” value was 104 genes. The “genes with transcription changed greater than two-fold” value in data set [12] amounted to 6 genes. Further, in data set [15] (1 mM ATP), the “Cdc28-as1 more sensitive than wild-type Cdc28” value is reported as “about 15,000 fold”. Further, the “time to cyclin destruction and rebudding” value in data set [18] is given as less than 60 min.
As for `CC(C)(C)n1nc(-c2cccc3ccccc23)c2c(N)ncnc21` [Compound 10], the IC50 in data set [19] amounted to 1 nM. The diploid colonies in data set [20] is recorded as 0.6-1.1 x 10^5 cfu/ml. Also, the “cfu/mL on YPD plates” value in data set [21] is listed as “No significant decrease in cfu/mL on YPD plates”. For the same molecule, in data set [22] (500 nM), the “decrease from equivalent control cells” value is given as 44 fold and the diploid colonies is 1.7x10^3 cfu/ml. Moreover, in data set [22] (50 µM), the “amount of diploids formed” value was “indistinguishable from a fus3Δ strain”.
In the case of `CC(C)(C)n1nc(Cc2cccc3ccccc23)c2c(N)ncnc21` [Compound 11], in data set [9] (concentrations that ablate Cdc28-as1 growth), the “growth of wild-type strains” value is “no effect on the growth of wild-type strains”. In addition, the “growth of yeast which express Cdc28-as1” value in data set [10] (concentrations without effect on wild-type strains) is “completely ablated”. Moreover, the “concentration below which none of the wild-type kinases tested are inhibited” value in data set [23] is not below 1 µM. The diploid colonies in data set [20] is 0.6-1.1 x 10^5 cfu/ml. Besides, the “cfu/mL on YPD plates” value in data set [21] is given as “No significant decrease in cfu/mL on YPD plates”. Further, the IC50 was 3.9 nM in [15] (IC50, text b289); more than 50000 nM in data set [16] (text b289, read-out: IC50); 5 nM in [24]; 8 nM in data set [25]; less than 10 nM in data set [26]. In data set [22] (50 µM), this molecule came in with a decrease in mating of 85 fold.
